The results in this text go back to PubChem BioAssay AID1990 (Broad Institute, 2009).

The target in the assay is Luciferin 4-monooxygenase (Photinus pyralis) (UniProt P08659). In words: Photinus pyralis luciferase inhibitors, H4 neuroglioma cells, confirmatory dose response, luminescence (AID 1990).

Records with an inconclusive call do not appear. Activity calls are given as the source filed them. How the calls were made is not given here.

Chain of Luciferin 4-monooxygenase (Photinus pyralis) (P08659 whole entry, looked up): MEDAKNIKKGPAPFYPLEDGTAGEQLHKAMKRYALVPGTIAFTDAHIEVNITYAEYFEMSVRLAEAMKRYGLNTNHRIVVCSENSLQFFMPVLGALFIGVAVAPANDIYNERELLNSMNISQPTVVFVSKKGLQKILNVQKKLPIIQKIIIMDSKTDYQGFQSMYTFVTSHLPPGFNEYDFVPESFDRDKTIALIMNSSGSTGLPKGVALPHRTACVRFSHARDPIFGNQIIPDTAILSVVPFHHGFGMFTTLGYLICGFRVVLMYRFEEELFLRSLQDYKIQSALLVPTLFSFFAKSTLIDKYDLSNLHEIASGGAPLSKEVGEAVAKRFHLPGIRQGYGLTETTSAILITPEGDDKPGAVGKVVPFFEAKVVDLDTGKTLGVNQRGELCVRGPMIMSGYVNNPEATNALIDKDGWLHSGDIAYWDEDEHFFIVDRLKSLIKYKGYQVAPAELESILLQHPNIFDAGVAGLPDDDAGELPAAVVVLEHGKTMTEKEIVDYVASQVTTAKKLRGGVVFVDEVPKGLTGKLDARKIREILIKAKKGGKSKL

For the compound `COc1ccc(O)c2c(=O)c3c(OC)cc4c(c3oc12)C1C=COC1O4` (stereo not drawn), the EC50 was below 0.1 µM.
Under `C#CCOCCOCCOCCNc1nc(N2CCN(C(=O)CCCCCCCCCCNC(=O)[C@H](CO)n3cc(CCCSC)nn3)CC2)nc(N2CCN(C(=O)CCCCCCCCCCNC(=O)[C@H](CCCCN)n3cc(C[C@@H](C)CC)nn3)CC2)n1` stands 7.24 µM; under `C=C(C=O)CC1CC(O)[C@]2(C)OC3CC4OC5C[C@]6(C)O[C@]7(C)CCC8OC9C[C@]%10(C)OC%11C(C)=CC(=O)OC%11CC%10OC9C[C@@H](C)C8OC7CC6O[C@]5(C)CC5OC5C4OC3CC2O1` (stereo partly drawn), > 12 µM (inactive).

What is called EC50 is the concentration that produces a half-maximal response.
